According to PMC6499206, “Quantification of Volatile Metabolites Derived From Garlic (Allium sativum) in Human Urine” (Frontiers in Nutrition, 2019):

Test: Quantification of garlic-derived metabolites in human urine after ingestion of 3 g raw garlic (SIDA, SAFE, HRGC-MS / HRGC-GC-MS)
Assay type: in vivo
Conditions: 3 g raw garlic
Source text: Human urine samples were obtained from 18 volunteers (age 22–38 years, mean 27 years; 11 females, 7 males); thereby, one volunteer conducted the whole experimental series twice. At the time of examination, volunteers reported no known illness that might have potentially influenced the metabolism or the excretion of urine. The test persons were instructed to avoid foods that were rich in sulfur-containing substances at the testing day as well as 2 days preceding the testing day, namely garlic, onion, wild garlic, chives, cabbage, and leek, and were only allowed to consume the garlic sample provided in the course of the experiments. Additionally, subjects were asked to keep records of the food (including food supplements) and beverages they consumed during these 3 testing days. Generally, the overall panelists' requirements were in accordance with our previous studies ([5], [16]).
On the sampling day, the outer garlic cloves of a whole garlic bulb were peeled and cut into ~3 mm cubes by using a garlic cutter (Genius GmbH, Limburg/Lahn, Germany). Subsequently these cubes were thoroughly mixed and aliquoted into 3 g portions. Three to four test persons conducted the experiment at the same day. Each test person was asked to ingest a garlic portion of 3 g. In total, eight consecutive urine samples were provided by each test person, comprising one whole urine set. The samples were collected in sterile brown glass bottles, with sampling times as follows: one sample was provided directly prior to garlic consumption. The series of the second to eighth sample was then obtained at about 0.5, 1, 2, 4, 6, 8, and 24 h after garlic consumption, respectively. Between the first urine sample (prior to garlic consumption) and the seventh urine sample (8 h after garlic consumption) test persons only spent urine at the specific time points mentioned before. Another sample was provided at the next morning (24 h after garlic consumption). Between the samples provided 8 and 24 h after garlic consumption no urine was collected. All samples were immediately placed into a −80°C freezer and were kept frozen until further analysis.
The samples of each set were termed according to their sampling time. The following list provides the time intervals that are related to the respective sample name: • - pre: before garlic consumption • - 0.5 h post: 0.4–0.8 h after garlic consumption • - 1 h post: 0.9–1.3 h after garlic consumption • - 2 h post: 1.8 h−2.2 h after garlic consumption • - 4 h post: 3.8–4.4 h after garlic consumption • - 6 h post: 5.8–6.4 h after garlic consumption • - 8 h post: 7.8–8.4 h after garlic consumption • - 24 h post: 23.8–25.6 h after garlic consumption
A creatinine kit (Labor+Technik Eberhard Lehmann GmbH, Berlin, Germany) was used to determine the creatinine content in each urine sample. The determination principle of this kit is based on the reaction of creatinine with picric acid under basic conditions (Jaffé reaction). The formed complex was detected photometrically at a wavelength of 492 nm.
For quantification purposes, the deuterated standards ^2H3-AMS, ^2H3-AMSO, and ^2H3-AMSO2 were added to the sample and stirred for 10 min. Subsequently, DCM was added in a ratio of 1:2 (DCM/human urine; v/v) and this solution was stirred for further 30 min at room temperature. To isolate the volatile fraction from the urine samples we then applied SAFE-distillation ([17]), thereby distilling the respective samples at 50°C. After completion of the distillation process, 10 mL of DCM were applied in each case to rinse the SAFE apparatus and to ensure complete transition of the volatile compounds. This process was repeated with another 10 mL of DCM. After thawing, the obtained aqueous distillate phase was extracted three times with 25 mL DCM. The organic phases were combined, dried over anhydrous Na2SO4 and concentrated to a total volume of 100 μL by means of Vigreux distillation and subsequent micro-distillation at 50°C. […]

- metabolite concentration in urine (U IV, 6 h post (6.08 h)): 96.7 µg/kg
- metabolite concentration in urine, creatinine-normalized (U IV, 6 h post (6.08 h)): 6.9 µg/mmol creatinine
- metabolite concentration in urine (U IV, 8 h post (8.05 h)): 73.4 µg/kg
- metabolite concentration in urine, creatinine-normalized (U IV, 8 h post (8.05 h)): 15.4 µg/mmol creatinine
- metabolite concentration in urine (U IV, 24 h post (24.03 h)): 6.8 µg/kg
- metabolite concentration in urine, creatinine-normalized (U IV, 24 h post (24.03 h)): 0.7 µg/mmol creatinine
- metabolite concentration in urine (U IV, pre (-0.05 h)): < LOD^3
- metabolite concentration in urine, creatinine-normalized (U IV, pre (-0.05 h)): < LOD^3
- metabolite concentration in urine (U IX, 0.5 h post (0.67 h)): 54.8 µg/kg
- metabolite concentration in urine, creatinine-normalized (U IX, 0.5 h post (0.67 h)): 52.1 µg/mmol creatinine
- metabolite concentration in urine (U IX, 1 h post (1.17 h)): 161.7 µg/kg
- metabolite concentration in urine, creatinine-normalized (U IX, 1 h post (1.17 h)): 167.7 µg/mmol creatinine
- metabolite concentration in urine (U IX, 2 h post (1.83 h)): 248.6 µg/kg
- metabolite concentration in urine, creatinine-normalized (U IX, 2 h post (1.83 h)): 236.2 µg/mmol creatinine
- metabolite concentration in urine (U IX, 4 h post (4.17 h)): 367.0 µg/kg
- metabolite concentration in urine, creatinine-normalized (U IX, 4 h post (4.17 h)): 70.5 µg/mmol creatinine
- metabolite concentration in urine (U IX, 6 h post (6.08 h)): 343.5 µg/kg
- metabolite concentration in urine, creatinine-normalized (U IX, 6 h post (6.08 h)): 107.8 µg/mmol creatinine
- metabolite concentration in urine (U IX, 8 h post (8.08 h)): 269.3 µg/kg
- metabolite concentration in urine, creatinine-normalized (U IX, 8 h post (8.08 h)): 19.2 µg/mmol creatinine
- metabolite concentration in urine (U IX, 24 h post (24.00 h)): 5.9 µg/kg
- metabolite concentration in urine, creatinine-normalized (U IX, 24 h post (24.00 h)): 0.7 µg/mmol creatinine
- metabolite concentration in urine (U IX, pre (-0.08 h)): < LOD^3
- metabolite concentration in urine, creatinine-normalized (U IX, pre (-0.08 h)): < LOD^3
- metabolite concentration in urine (U V, 0.5 h post (0.50 h)): 33.9 µg/kg
- metabolite concentration in urine, creatinine-normalized (U V, 0.5 h post (0.50 h)): 49.6 µg/mmol creatinine
- metabolite concentration in urine (U V, 1 h post (1.00 h)): 80.4 µg/kg
- metabolite concentration in urine, creatinine-normalized (U V, 1 h post (1.00 h)): 96.0 µg/mmol creatinine
- metabolite concentration in urine (U V, 2 h post (2.00 h)): 111.3 µg/kg
- metabolite concentration in urine, creatinine-normalized (U V, 2 h post (2.00 h)): 132.8 µg/mmol creatinine
- metabolite concentration in urine (U V, 4 h post (4.00 h)): 142.9 µg/kg
- metabolite concentration in urine, creatinine-normalized (U V, 4 h post (4.00 h)): 46.1 µg/mmol creatinine
- metabolite concentration in urine (U V, 6 h post (6.00 h)): 151.3 µg/kg
- metabolite concentration in urine, creatinine-normalized (U V, 6 h post (6.00 h)): 30.1 µg/mmol creatinine
- metabolite concentration in urine (U V, 8 h post (8.00 h)): 99.4 µg/kg
- metabolite concentration in urine, creatinine-normalized (U V, 8 h post (8.00 h)): 45.8 µg/mmol creatinine
- metabolite concentration in urine (U V, 24 h post (24.00 h)): 5.1 µg/kg
- metabolite concentration in urine, creatinine-normalized (U V, 24 h post (24.00 h)): 0.9 µg/mmol creatinine
- metabolite concentration in urine (U V, pre (-0.05 h)): < LOD^3
- metabolite concentration in urine, creatinine-normalized (U V, pre (-0.05 h)): < LOD^3
- metabolite concentration in urine (U VI, 0.5 h post (0.50 h)): 74.1 µg/kg
- metabolite concentration in urine, creatinine-normalized (U VI, 0.5 h post (0.50 h)): 33.9 µg/mmol creatinine
- metabolite concentration in urine (U VI, 1 h post (1.00 h)): 87.6 µg/kg
- metabolite concentration in urine, creatinine-normalized (U VI, 1 h post (1.00 h)): 73.1 µg/mmol creatinine
- metabolite concentration in urine (U VI, 2 h post (2.00 h)): 136.6 µg/kg
- metabolite concentration in urine, creatinine-normalized (U VI, 2 h post (2.00 h)): 123.2 µg/mmol creatinine
- metabolite concentration in urine (U VI, 4 h post (4.00 h)): 150.1 µg/kg
- metabolite concentration in urine, creatinine-normalized (U VI, 4 h post (4.00 h)): 43.2 µg/mmol creatinine
- metabolite concentration in urine (U VI, 6 h post (6.00 h)): 147.1 µg/kg
- metabolite concentration in urine, creatinine-normalized (U VI, 6 h post (6.00 h)): 27.1 µg/mmol creatinine
- metabolite concentration in urine (U VI, 8 h post (8.00 h)): 106.7 µg/kg
- metabolite concentration in urine, creatinine-normalized (U VI, 8 h post (8.00 h)): 21.2 µg/mmol creatinine
- metabolite concentration in urine (U VI, 24 h post (24.17 h)): 9.2 µg/kg
- metabolite concentration in urine, creatinine-normalized (U VI, 24 h post (24.17 h)): 0.6 µg/mmol creatinine
- metabolite concentration in urine (U VI, pre (-0.05 h)): < LOD^3
- metabolite concentration in urine, creatinine-normalized (U VI, pre (-0.05 h)): < LOD^3
- metabolite concentration in urine (U VII, 0.5 h post (0.50 h)): 44.1 µg/kg
- metabolite concentration in urine, creatinine-normalized (U VII, 0.5 h post (0.50 h)): 41.3 µg/mmol creatinine
Structure (SMILES): C=CCS(C)(=O)=O [AMSO2, allyl methyl sulfone]
